From ChEMBL document CHEMBL1158174, “The antioxidant activity of 2-(4(or 2)-hydroxyl-5-chloride-1,3-benzene-di-sulfanimide)-chitosan” (Eur J Med Chem, 2008)

Key:
[1] = Antioxidant activity assessed as hydroxyl radical scavenging activity; type: functional
[2] = Antioxidant activity assessed as superoxide radical scavenging activity at 0.40 mg/mL; type: functional

IC50 [1]: > 711 mg/L
SMILES: O=C1O[C@H]([C@@H](O)CO)C(O)=C1O [ASCORBIC ACID]
Activity [2]: 33.9%
